Patent US8633212B2, “Inhibitors of beta-secretase” (Vitae Pharmaceuticals, Inc., priority 2009, dated 2014)

The compounds below were run against truncated human beta-secretase (residues 1-458, His6-tagged at the C-terminus) (Homo sapiens (Human), UniProt P56817) (assay: BACE enzyme assay (fluorescence quench assay, Example 434A)). Conditions: not given.
Format: biochemical

truncated human beta-secretase (residues 1-458, His6-tagged at the C-terminus), sequence (P56817 22-458): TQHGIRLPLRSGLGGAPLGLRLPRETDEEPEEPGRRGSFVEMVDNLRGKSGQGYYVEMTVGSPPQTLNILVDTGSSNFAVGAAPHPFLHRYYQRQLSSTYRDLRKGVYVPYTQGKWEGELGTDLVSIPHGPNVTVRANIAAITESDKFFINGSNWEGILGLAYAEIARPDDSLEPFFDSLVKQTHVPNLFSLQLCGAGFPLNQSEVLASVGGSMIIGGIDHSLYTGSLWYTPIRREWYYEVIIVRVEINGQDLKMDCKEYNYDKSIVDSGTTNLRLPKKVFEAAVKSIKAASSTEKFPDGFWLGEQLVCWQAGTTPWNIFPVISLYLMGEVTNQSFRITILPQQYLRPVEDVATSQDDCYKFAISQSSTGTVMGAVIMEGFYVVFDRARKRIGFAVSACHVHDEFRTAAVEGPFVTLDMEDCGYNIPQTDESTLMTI

Row | SMILES | IC50 [nM]
1 | CN1OC2(N=C1N)c1cc(C#CC3CC3)ccc1CC21CCC(OC(F)F)CC1 (stereo not drawn) [Compound 99] | 2.4

Same assay, conditions: footnote a: protocols described in Example 434A; read-out: IC50

Row | IC50 [nM] | SMILES
2 | 16.7 | Cc1onc2c1CC1(CC2)Cc2ccc(C#CC3CC3)cc2C12N=C(N)N(C)O2 (stereo not drawn) [Compound 468]
3 | 4700 | CN1OC2(CC3(CCOCC3)c3ccc(-c4cccc(C#N)c4)cc32)N=C1N (stereo not drawn) [Compound 69, 3-(spiro[spiro[2,3-dihydro-indene-3,1′-(4-oxacyclohexane)]-1,5′-(3-amino-2-methyl-2H-[1,2,4]oxadiazole)]-6-yl)benzonitrile]
4 | 694 | COC1CCC2(CC1)Cc1ccc(C#CC3CC3)cc1[C@@]21N=C(N)N(C)C1=O (stereo partly drawn) [Compound 477]
5 | 196 | COc1cncc(-c2ccc3c(c2)C2(N=C(N)N(C)O2)C2(CCC(OC)CC2)C3)n1 (stereo not drawn) [Compound 111]
6 | 17.4 | COC1CCC2(CC1)Cc1ccc(CCC3CC3)cc1C21N=C(N)N(C)O1 (stereo not drawn) [Compound 117]
7 | 3320 | CN1OC2(N=C1N)c1cc(-c3cccc(C#N)c3)ccc1CC21CCC(NCC(F)(F)F)CC1 (stereo not drawn) [Compound 98]
8 | 21 | CCOC1CCC2(CC1)Cc1ccc(C#CC3CC3)cc1C21N=C(N)N(C)O1 (stereo not drawn) [Compound 24]
9 | 2.1 | COC1CCC2(CC1)Cc1ccc(C#CC3CC3)cc1C21N=C(N)N(C)C1=O (stereo not drawn) [Compound 76]
10 | 4110 | CO[C@H]1CC2(Cc3ccc(-c4cccc(C#N)c4)cc3C23N=C(N)N(C)O3)C[C@H]1OC (stereo partly drawn) [Compound 62]
11 | 29.2 | COC1CCC2(CC1)Cc1ccc(C#CC3CC3)cc1C21N=C(N)NC1=O (stereo not drawn) [Compound 264]
12 | 58.6 | Cc1onc2c1CC1(CC2)Cc2ccc(-c3cccnc3)cc2C12N=C(N)N(C)O2 (stereo not drawn) [Compound 451]
13 | 3260 | CN1OC2(N=C1N)c1cc(-c3cccc(C#N)c3)ccc1CC21Cc2cccc3cccc(c23)C1 (stereo not drawn) [Compound 61]
14 | 207 | CN1C(=O)C2(N=C1N)c1cc(C#CC3CC3)ccc1CC21CCC(O)CC1 (stereo not drawn) [Compound 151]
15 | 33.1 | COC1CCC2(CC1)Cc1ccc(C3=CC(O)CC3)cc1C21N=C(N)N(C)C1=O (stereo not drawn) [Compound 476]
16 | 3880 | CN1OC2(N=C1N)c1cc(-c3cccc(C#N)c3)ccc1CC21CCC(NCC(F)(F)F)CC1 (stereo not drawn) [Compound 97]
17 | 74.1 | COC1CCC2(CC1)Cc1ccc(-c3cc(F)ccc3C)cc1C21N=C(N)N(C)O1 (stereo not drawn) [Compound 32]
18 | 4.7 | CN1OC2(N=C1N)c1cc(-c3cccc(C#N)c3)ccc1CC21CCC(OC(F)F)CC1 (stereo not drawn) [Compound 100]
19 | 80.4 | COC1CCC2(CC1)Cc1ccc(C#Cc3ccccc3)cc1C21N=C(N)N(C)O1 (stereo not drawn) [Compound 112]
20 | 2 | COC1CCC2(CC1)Cc1ccc(C#CC3CC3)cc1C21N=C(N)N(Cc2ccccc2)C1=O (stereo not drawn) [Compound 142]
21 | 493 | CO[C@H]1CC[C@]2(CC1)Cc1c(F)cccc1C21N=C(N)N(C)C1=O (stereo partly drawn) [Compound 249]
22 | 466 | CN1OC2(N=C1N)c1cc(-c3cccc(C#N)c3)ccc1CC21CCOCC1 (stereo not drawn) [Compound 51, 3-(spiro[spiro[2,3-dihydro-indene-2,1′-(4-oxacyclohexane)]-1,5′-(3-amino-2-methyl-2H-[1,2,4]oxadiazole)]-6-yl)benzonitrile]
23 | 9.7 | COC1CCC2(CC1)Cc1ccc(C#CC3CCCC3)cc1C21N=C(N)N(C)O1 (stereo not drawn) [Compound 114]
24 | 15.6 | CCN1C(=O)C2(N=C1N)c1cc(C#CC3CC3)ccc1CC21CCC(OC)CC1 (stereo not drawn) [Compound 138]
25 | 2.2 | COC1CCC2(CC1)Cc1ccc(C#CC3CC3)cc1[C@]21N=C(N)N(C)C1=O (stereo partly drawn) [Compound 478]
26 | 3 | CN1C(=O)C2(N=C1N)c1cc(C#CC3CC3)ccc1CC21CCC(O)CC1 (stereo not drawn) [Compound 150]
27 | 126 | COC1CCC2(CC1)Cc1ccc(-c3ccc4cc[nH]c4c3)cc1C21N=C(N)N(C)O1 (stereo not drawn) [Compound 37]
28 | 2.8 | Cc1onc2c1CC1(CC2)Cc2ccc(C#CC3CC3)cc2C12N=C(N)N(C)C2=O (stereo not drawn) [Compound 467]
29 | 76.7 | COC1CCC2(CC1)Cc1ccc(-c3cncs3)cc1C21N=C(N)N(C)O1 (stereo not drawn) [Compound 116]
30 | 24.6 | COC1CCC2(CC1)Cc1ccc(C#CC(C)(C)C)cc1C21N=C(N)N(C)O1 (stereo not drawn) [Compound 113]

Row | SMILES | IC50 [nM]
31 | COC1CCC2(CC1)Cc1ccc(Br)cc1C21N=C(N)N(C)O1 (stereo not drawn) [Compound 95] | 137
32 | COC1CCC2(CC1)Cc1ccc(-c3cnccn3)cc1C21N=C(N)N(C)O1 (stereo not drawn) [Compound 109] | 23.6
33 | COC1CCC2(CC1)Oc1ccc(-c3cccc(C#N)c3)cc1C21N=C(N)N(C)O1 (stereo not drawn) [Compound 68] | 1780
34 | COC1CCC2(CC1)Cc1ccc(OCC3CC3)cc1C21N=C(N)N(C)O1 (stereo not drawn) [Compound 110] | 14.6
35 | Cc1ccc2c(c1)C1(N=C(N)N(C)O1)C1(CCc3ccccc3CC1)C2 (stereo not drawn) [Compound 104] | 255
36 | CN1OC2(N=C1N)c1cc(-c3ccnnc3)ccc1CC21CCc2ccccc2CC1 (stereo not drawn) [Compound 122] | 42.5
37 | COC1CCC2(CC1)Cc1ccc(C#CC(F)(F)F)cc1C21N=C(N)N(C)O1 (stereo not drawn) [Compound 115] | 3.7
38 | COC1CCC2(CC1)Cc1ccc(-c3ccnnc3)cc1C21N=C(N)N(C)O1 (stereo not drawn) [Compound 108] | 156
39 | CN1OC2(N=C1N)c1cc(-c3cccc(C#N)c3)ccc1CC21CCc2cnncc2CC1 (stereo not drawn) [Compound 456] | 877
40 | CO[C@H]1CC[C@@]2(CC1)Cc1ccc(-c3cccc(C#N)c3)cc1C21CC(=O)N(C)C(N)=N1 (stereo partly drawn) [Compound 65] | 50000
41 | CN1OC2(N=C1N)c1cc(Br)ccc1OC21CCc2ccccc2CC1 (stereo not drawn) [Compound 67] | 138
42 | CN1OC2(N=C1N)c1cc(C#CC3CC3)ccc1CC21CCc2ccccc2CC1 (stereo not drawn) [Compound 105] | 8.4
43 | CN1OC2(N=C1N)c1cc(-c3cccc(C#N)c3)ccc1CCC21CCc2ccccc2CC1 (stereo not drawn) [Compound 63] | 5050
44 | CCOC1CCC2(CC1)Cc1ccc(-c3cccc(C#N)c3)cc1C21N=C(N)N(C)O1 (stereo not drawn) [Compound 82] | 432

Same assay, conditions: read-out: IC50

Row | SMILES | IC50 [nM]
45 | CN1OC2(N=C1N)c1cc(-c3cccnn3)ccc1CC21CCc2ccccc2CC1 (stereo not drawn) [Compound 121] | 56.2
